Values of other authors as cited in patent US9226893B2, “Method for storing silica-based material, package produced with the method and use of package for packaging of silica-based products” (DelSiTech Oy, priority 2006, dated 2016).

**Q.** With “lysozyme: Lysozyme released from sol-gel derived silica gel (literature, Wilson et al.)” as the substance, how does the “activity of released lysozyme” value (gel let to dry and age simultaneously, within few weeks) read?
**A.** substantially reduced

**Q.** And the “amount of biologically active lysozyme relative to total amount of released lysozyme” value (silica gel which had not dried, with or without protective agent)?
**A.** ~100%
